In patent US20180036289A1 (Gilead Sciences, Inc., priority 2016, published 2018):

How the values were obtained:
Format in all cases: cell-based
[1] = tested on: SHP-77; assay: Cell proliferation assay (ATPlite), drug with vs without cobicistat; conditions: SHP-77 cell line; 120 hours incubation
Outline: (§1)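 Cells seeded at 200-3200/well in ATCC-recommended medium, grown 24 h, then exposed to 9-point 3.16-fold dilutions (3.16×10^−5 to 3.16×10^−9 M, duplicate, 0.4% DMSO final) for 120 h at 37 °C, 5% CO2. ATPlite luminescence gave %-growth versus untreated; IC50 from 4-parameter logistic fit.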

[2] = tested on: COLO 829; assay: as above; conditions: COLO 829 cell line; 120 hours incubation
Outline: as §1

[3] = tested on: NCI-H460; assay: as above; conditions: NCI-H460 cell line; 120 hours incubation
Outline: as §1

[4] = tested on: Jurkat E6.1; assay: as above; conditions: Jurkat E6.1 cell line; 120 hours incubation
Outline: as §1

[5] = tested on: RKO; assay: as above; conditions: RKO cell line; 120 hours incubation
Outline: as §1

[6] = tested on: LS 174T; assay: as above; conditions: LS 174T cell line; 120 hours incubation
Outline: as §1

[7] = tested on: cell lines tested; assay: Cell proliferation assay, summary across all cell lines and drugs; conditions: comparison among the six primary drugs
Description: All cell lines were obtained from the American Type Culture Collection (ATCC) Manassas, Va. (US). Master and working cell banks (MCB and WCB) were prepared by subculturing in ATCC-recommended media and freezing protocols (www.atcc.org). Cell line stocks for the assays were prepared from the WCB. The MCB, WCBs and assay stocks were prepared within respectively 3, 6 and 9 passages of the ATCC vial.
Solid powders of reference compounds were weighed on a calibrated balance and dissolved in 100% DMSO. DMSO samples were stored at room temperature. At the day of the experiment, the compound stock was diluted in 3.16 fold steps in 100% DMSO to obtain a 9-point dilution series. This was further diluted 31.6 times in 20 mM sterile Hepes buffer pH 7.4. A volume of 5 μl was transferred to the cells to generate a test concentration range from 3.16×10^−5M to 3.16×10^−9 M in duplicate. The final DMSO concentration during incubation was […] in all wells.
An assay stock was thawed and diluted in its ATCC recommended medium and dispensed in a 384-well plate, depending on the cell line used, at a concentration of 200-3200 cells per well in 45 μl medium. For each used cell line the optimal cell density is used. The margins of the plate were filled with phosphate-buffered saline. Plated cells were incubated in a humidified atmosphere of 5% CO2 at 37° C. After 24 hours, 5 μl of compound dilution was added and plates were further incubated for another 120 hours. After 120 hours, 25 μl of ATPlite 1Step™ (PerkinElmer) solution was added to each well, and subsequently shaken for 2 minutes. After 10 minutes of incubation in the dark, the luminescence was recorded on an Envision multimode reader (PerkinElmer).
IC50s were calculated by non-linear regression using IDBS XLfit 5. The percentage growth after 120 h (%-growth) was calculated as follows: 100%×(luminescencet=120h/luminescenceuntreated,t=120h). This was fitted to the ^10log compound concentration (conc) by a 4-parameter logistics curve: %−growth=bottom+(top−bottom)/(1+10^(log IC50-conc)*hill)), where hill is the Hill-coefficient, and bottom and top the asymptotic minimum and maximum cell growth that the compound allows in that assay.

SMILES | Fold change in IC50 (IC50 [Drug + Cobicistat]/IC50 [Drug]) [1] [fold] | Fold change in IC50 (IC50 [Drug + Cobicistat]/IC50 [Drug]) [2] [fold] | Fold change in IC50 (IC50 [Drug + Cobicistat]/IC50 [Drug]) [3] [fold] | Fold change in IC50 (IC50 [Drug + Cobicistat]/IC50 [Drug]) [4] [fold] | Fold change in IC50 (IC50 [Drug + Cobicistat]/IC50 [Drug]) [5] [fold] | Fold change in IC50 (IC50 [Drug + Cobicistat]/IC50 [Drug]) [6] [fold] | extent of boosting by cobicistat [7]
Cc1nc(Nc2ncc(C(=O)Nc3c(C)cccc3Cl)s2)cc(N2CCN(CCO)CC2)n1 [dasatinib] | 1.4 |  |  |  |  |  | 
CC(=O)O[C@@]12CO[C@@H]1C[C@H](O)[C@@]1(C)C(=O)[C@H](O)C3=C(C)[C@@H](OC(=O)[C@H](O)[C@@H](NC(=O)OC(C)(C)C)c4ccccc4)C[C@@](O)([C@@H](OC(=O)c4ccccc4)[C@H]21)C3(C)C [docetaxel] | 3.5 | 3.7 | 2.1 | 2.2 | 3.8 | 2.8 | boosted to the greatest extent
COc1cccc2c1C(=O)c1c(O)c3c(c(O)c1C2=O)C[C@@](O)(C(=O)CO)C[C@@H]3O[C@H]1C[C@H](N)[C@H](O)[C@H](C)O1 [doxorubicin] | 2.5 | 3.8 | 2.0 | 2.5 | 2.9 | 3.6 | 
CC(=O)O[C@H]1C(=O)[C@@]2(C)[C@H]([C@H](OC(=O)c3ccccc3)[C@]3(O)C[C@H](OC(=O)[C@H](O)[C@@H](NC(=O)c4ccccc4)c4ccccc4)C(C)=C1C3(C)C)[C@]1(OC(C)=O)CO[C@@H]1C[C@@H]2O [paclitaxel] | 2.3 | 4.1 | 2.0 | 2.5 | 3.3 | 1.8 | 
CC[C@]1(O)C[C@@H]2CN(CCc3c([nH]c4ccccc34)[C@@](C(=O)OC)(c3cc4c(cc3OC)N(C)[C@H]3[C@@](O)(C(=O)OC)[C@H](OC(C)=O)[C@]5(CC)C=CCN6CC[C@]43[C@@H]65)C2)C1 [vinblastine] | 2.0 | 6.3 | 3.4 | 2.5 | 3.6 | 3.4 | boosted to the greatest extent
CC[C@]1(O)C[C@H]2CN(CCc3c([nH]c4ccccc34)[C@@](C(=O)OC)(c3cc4c(cc3OC)N(C=O)[C@H]3[C@@](O)(C(=O)OC)[C@H](OC(C)=O)[C@]5(CC)C=CCN6CC[C@]43[C@@H]65)C2)C1 [vincristine] | 2.6 | 4.4 | 3.1 | 2.8 | 3.7 | 2.5 | boosted to the greatest extent
